Experimental data published in patent US20030232862A1 (priority 2002, published 2003).
Where two headings read alike, the source gives them in different places.

Tests used:
[1] = biological target: cGMP PDE purified from human colon HT-29 cultured tumor cells (Homo sapiens, UniProt O76074); test: cGMP PDE inhibition assay; assay type: biochemical; settings: for PDE Inhibition: Table 9 qualitative profile
HT-29 cells = test: Growth inhibition of HT-29 cells (SRB assay; trypan blue counting in time course); assay type: cell-based, human; settings: for Growth Inhibition: Table 9 qualitative profile
[2] = biological target: T1, cGMP binding sites of GST-cGB-PDE5 fusion protein (Homo sapiens, UniProt O76074); test: cGMP binding assay with GST-cGB-PDE5 fusion protein; settings: for competition with cGMP binding at high concentration: 100 μM, cGMP 2 μM
T1 construct: made in house; host or cells: E. coli BL21 (DE3)

[3] = tested on: Peak B's (from SW480, HTB-26, and LnCAP); test: FPLC-isolated Peak B PDE activity from three neoplastic cell lines; assay type: biochemical
Experimental: The novel Peak B was also isolated from two other neoplastic cell lines, a breast cancer cell line, HTB-26, and a prostate cancer cell line, LnCAP, by a procedure similar to the one above used to isolate it from SW480. The protocol was modified in several respects. To provide even greater reproducibility to allow comparison of different cell lines, a Pharmacia AKTA FPLC was used to control sample loading and elution on an 18 mL DEAE TrisAcryl M column. SW840 was run by this same procedure multiple times to provide a reference of Peak B. 200-400 million cells of SW480 were used for the profiles. 70 million cells of LnCAP were used for a profile (see FIGS. 22 and 23), and in a separate experiment 32 million cells of HTB-26 were used for a profile (see FIGS. 20 and 21). After re-suspending cells in homogenization buffer, samples were manually homogenized. FPLC buffer A was 8 mM TRIS-acetate, 5 mM Mg acetate, 0.1 mM EDTA, pH 7.5 and buffer B was 8 mM TRIS-acetate, 5 mM Mg acetate, 0.1 mM EDTA, 1 M Na acetate, pH 7.5. Supernatants were loaded onto the column at 1 mL per minute, followed by a wash with 60 mL buffer A at 1 mL per minute. A gradient was run from 0-15% buffer B in 60 mL, 15-50% buffer B in 60 mL, and 50-100% buffer B in 16 mL. During the gradient 1.5 mL fractions were collected.

[4] = tested on: SW-480 colon adenocarcinoma cells; test: Apoptosis fold induction protocol (DNA fragmentation, Table 4); settings: 100 μM; cell line not given
Cyclooxygenase (COX) = biological target: T2, Cyclooxygenase (COX) (Ovis aries, UniProt P05979); test: COX inhibition assay, single dose screen (Table 2); assay type: biochemical; settings: for COX Inhibition: Table 9 qualitative profile
T2 sequence (P05979 25-600): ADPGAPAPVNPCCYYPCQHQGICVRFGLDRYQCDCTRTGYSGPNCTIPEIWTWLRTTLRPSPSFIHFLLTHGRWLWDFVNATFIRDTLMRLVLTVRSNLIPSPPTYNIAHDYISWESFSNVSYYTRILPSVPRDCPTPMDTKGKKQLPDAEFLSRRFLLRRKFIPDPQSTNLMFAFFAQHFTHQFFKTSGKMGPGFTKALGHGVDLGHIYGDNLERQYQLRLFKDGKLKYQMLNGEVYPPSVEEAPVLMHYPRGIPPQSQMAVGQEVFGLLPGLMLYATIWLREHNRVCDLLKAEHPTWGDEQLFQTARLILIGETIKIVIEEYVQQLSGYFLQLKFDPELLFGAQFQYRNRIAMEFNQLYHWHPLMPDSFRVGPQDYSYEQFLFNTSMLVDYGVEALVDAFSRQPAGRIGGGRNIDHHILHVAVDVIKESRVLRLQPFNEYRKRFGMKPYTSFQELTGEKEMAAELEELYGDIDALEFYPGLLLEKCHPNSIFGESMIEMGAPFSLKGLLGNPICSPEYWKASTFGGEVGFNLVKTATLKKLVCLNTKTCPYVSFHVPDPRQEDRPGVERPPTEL

[5] = tested on: HT-29 colon adenocarcinoma cells; test: Apoptosis by DNA fragmentation assay in HT-29 cells; assay type: cell-based, human; settings: Table 9 qualitative profile; note: key: −: Not active; +: Slightly active; + +: Moderately active; + + +: Strongly active; + + + +: Highly active
[6] = biological target: T3, PDE Peak A (PDE5) from SW480 cells (Homo sapiens, UniProt O76074); test: cGMP hydrolysis by PDE Peak A (PDE5) isolated from SW480 cells; assay type: biochemical
T3 construct: To isolate the novel phosphodiesterase from SW480, approximately four hundred million SW480 cells were grown to confluence; endogenous in cells; host or cells: SW480 colon cancer cells; 105,000 g supernatant, DEAE-Trisacryl M fraction

[7] = tested on: premalignant lesions in mouse mammary gland organ culture; test: Mammary gland organ culture model; for mammary gland organ culture: key: −: Not active; +: Slightly active; + +: Moderately active; + + +: Strongly active; + + + +: Highly active; assay type: cell-based; settings: for inhibition of formation of premalignant lesions: FIG. 17
From the text: Test compounds identified by the above methods can be tested for antineoplastic activity by their ability to inhibit the incidence of pre-neoplastic lesions in a mammary gland organ culture system. This mouse mammary gland organ culture technique has been successfully used by other investigators to study the effects of known antineoplastic agents such as certain NSAIDs, retinoids, tamoxifen, selenium, and certain natural products, and is useful for validation of the screening method of the present invention.
For example, female BALB/c mice can be treated with a combination of estradiol and progesterone daily, in order to prime the glands to be responsive to hormones in vitro. The animals are sacrificed, and thoracic mammary glands are excised aseptically and incubated for ten days in growth media supplemented with insulin, prolactin, hydrocortisone, and aldosterone. DMBA (7,12-dimethylbenz(a)anthracene) is added to medium to induce the formation of premalignant lesions. Fully developed glands are then deprived of prolactin, hydrocortisone, and aldosterone, resulting in the regression of the glands but not the pre-malignant lesions.
The test compound is dissolved in DMSO and added to the culture media for the duration of the culture period. At the end of the culture period, the glands are fixed in 10% formalin, stained with alum carmine, and mounted on glass slides. The incidence of forming mammary lesions is the ratio of the glands with mammary lesions to […]. The incidence of mammary lesions in test compound treated glands is compared with that of the untreated glands.
The extent of the area occupied by the mammary lesions can be quantitated by projecting an image of the gland onto a digitation pad. The area covered by the gland is traced on the pad and considered as 100% of the area. The space covered by each of the non-regressed structures is also outlined on the digitization pad and quantitated by the computer.
Mammary gland organ culture experiment were performed as previously described (Mehta and Moon, Cancer Research, 46: 5832-5835, 1986).

“rac-(E)-1-(butan-1′,4′-olido)-[3′,4′:1,2]-6-fluoro-2-methyl-3-(p-methylsulfonylbenzylidene)-1S-indanyl-glutathione)” was tested, and the “PDE Inhibition” value [1] was “−” and the “Growth Inhibition” value (HT-29 cells) was “+ +”.
With CCCCOC1C2OP(=O)(O)OCC2OC1n1cnc2c(N)ncnc21 (centres unmarked) [2′-O-butyl-cAMP] the “competition with cGMP in binding of GST-cGB-PDE5” value (“competition with cGMP in binding” below) ([2]; 3H-cGMP 2 μM) was “did not compete”.
Nc1ccn([C@@H]2O[C@@H]3COP(=O)(O)O[C@H]3[C@H]2O)c(=O)n1 [cCMP] was tested, and the “competition with cGMP in binding” value ([2]; 3H-cGMP 2 μM) was “did not compete”.
With O=c1[nH]cnc2c1ncn2[C@@H]1O[C@@H]2COP(=O)(O)O[C@H]2[C@H]1O [Cyclic IMP] the “competition with cGMP binding at high concentration” value [2] was “partially compete”.
O=c1ccn([C@@H]2O[C@@H]3COP(=O)(O)O[C@H]3[C@H]2O)c(=O)[nH]1 [cUMP] was tested, and the “competition with cGMP in binding” value ([2]; 3H-cGMP 2 μM) was “did not compete”.
For COc1ccc(C2CNC(=O)C2)cc1OC1CCCC1 (centres unmarked) [Rolipram], the “inhibition of cAMP PDE activity in Peak B fractions” value [3] was “inhibited most of the cAMP PDE activity”.
CCCCCC[C@@H]([C@@H](C)O)n1cnc2c(N)ncnc21 (racemic) [EHNA] was tested, and the “Fold induction at 100 μM (apoptosis)” value [4] was <2.0 fold.
In the case of Clc1cccc(Nc2nnc(-c3ccccc3)c3ccccc23)c1 [MY5445, 1-(3-chloroanilino)-4-phenyphthalazine, reference compound], the “% Inhibition at 100 μM (cyclooxygenase)” value (Cyclooxygenase (COX)) is reported as 94%, the “COX Inhibition” value (Cyclooxygenase (COX)) is reported as “+ + +” and the Apoptosis [5] is reported as “+ + +”. The “Growth Inhibition” value (HT-29 cells) was “+ + +”.
CCCc1nn(C)c2c(=O)[nH]c(-c3cc(S(=O)(=O)N4CCN(C)CC4)ccc3OCC)nc12 [Sildenafil, reference compound] was tested, and the “inhibition of activity of Peak A” value [6] was “inhibited activity of Peak A”.
CC1=C(CC(=O)O)c2cc(F)ccc2/C1=C\c1ccc([S+](C)[O-])cc1 (centres unmarked) [sulindac, reference compound] was tested, and the “inhibition of formation of premalignant lesions” value [7] was “effectively inhibit”.
CC(=O)NC(CSC12CC(=O)OC1(C)/C(=C/c1ccc(S(C)(=O)=O)cc1)c1ccc(F)cc12)C(=O)O (racemic) [D, rac-(E)-1-(butan-1′,4′-olido)-[3′,4′:1,2]-6-fluoro-2-methyl-3-(p-methylsulfonylbenzylidene)-1S-indanyl-N-acetylcysteine] was tested, and the “% Inhibition at 100 μM (cyclooxygenase)” value (Cyclooxygenase (COX)) was <25%, the “% Inhibition at 100 μM (growth)” value (HT-29 cells) was 78% and the “Growth Inhibition” value (HT-29 cells) was “+ +”.
With Nc1nc2c(nc(Br)n2[C@@H]2O[C@@H]3COP(=O)(O)O[C@H]3[C@H]2O)c(=O)[nH]1 [Example 8-bromo-cGMP] the “competition with cGMP binding at high concentration” value [2] was “partially compete”.
With Nc1ncnc2c1ncn2[C@@H]1O[C@@H]2COP(=O)(O)O[C@H]2[C@H]1O [Cyclic AMP] the “competition with cGMP in binding” value [2] was “did not compete”.
In the case of O=C([O-])C1CCN(c2nc(NCc3ccc4c(c3)OCO4)c3cc(Cl)ccc3n2)CC1.[Na+] [Example E4021, reference compound], the “sensitivity of Peak B cGMP PDE activity” value ([3]; 100 nM, 0.25 μM cGMP) is reported as “resistant” and the “% Inhibition at 100 μM (growth)” value (HT-29 cells) is reported as <50%.
With CC1=C(CC(=O)O)c2cc(F)ccc2/C1=C\c1ccc(Cl)cc1 [Compound C, (Z)-5-Fluoro-2-methyl-1-(p-chlorobenzylidene)-3-acetic acid] the “% Inhibition at 10 μM (cGMP PDE)” value [1] was <25% and the “% Inhibition at 100 μM (growth)” value (HT-29 cells) was 80%.
In the case of CC1=C(CC(=O)N(C2CCCCC2)C2CCCCC2)c2cc(F)ccc2/C1=C\c1ccc(S(C)(=O)=O)cc1 [F, (Z)-5-Fluoro-2-methyl-1-(p-methylsulfonylbenzylidene)-3-indenylacetamide, N,N′-dicyclohexyl], the “PDE Inhibition” value [1] is reported as “−” and the “Growth Inhibition” value (HT-29 cells) is reported as “+ +”.
“5-fluoro-2-methyl-1-(p-methylsulfinylbenzylidene)-3-indenylacetic acid [Sulindac sulfide, reference compound]” was tested, and the “competitive (with cGMP) inhibition/binding, Peak A” value [6] was “competitively inhibited”, the “% Inhibition at 100 μM (cyclooxygenase)” value (Cyclooxygenase (COX)) was 97% and the “COX Inhibition” value (Cyclooxygenase (COX)) was “+ + + +”. For the same compound, the “% Inhibition at 10 μM (cGMP PDE)” value [1] was 97%, the “PDE Inhibition” value [1] was “+ + +” and the IC50 ([1]; read-out: IC50 for inhibition of cGMP PDE) was 17 µM. For the same compound, the Apoptosis [5] was “+ + +” and the “inhibition of formation of premalignant lesions” value [7] was “inactive”.
CCCCOC1C2OP(=O)(O)OCC2OC1n1cnc2c(=O)[nH]c(N)nc21 (centres unmarked) [2′-O-butyl-cGMP] was tested, and the “competition with cGMP in binding” value ([2]; 3H-cGMP 2 μM) was “did not compete”.
In the case of “ribo-(E)-1-Triazolo-[2′,3′:1″,3″]-1-(butan-1′,4′-olido)-[3′,4′:1,2]-6-fluoro-2-methyl-3-(p-methylsulfonylbenzylidene)-indan [G]”, the “PDE Inhibition” value [1] is reported as “−”, the Apoptosis [5] is reported as “+ +” and the “Growth Inhibition” value (HT-29 cells) is reported as “+ +”. For the same compound, the “Mammary Gland Organ Culture” value ([7]; Table 9 qualitative profile) was “+ + +”.
